19 molecules from patent publication US20080021069A1, “Receptor Function Regulating Agent” (TAKEDA PHARMACEUTICAL COMPANY LIMITED, priority 2004, published 2008) can be followed below.

One data set addresses T1, human GPR40 (Homo sapiens, UniProt O14842).
T1 construct: expressed in transfected cells; host or cells: CHO(dhfr-) cells: line CHO-hGPR40 No. 104 of WO2004/041266, with a stably expressed NFAT-TA-Luc reporter (CHO(dhfr-)/GPR40-NFAT-Luc)
Description: GPR40 antagonist activity with changes in intracellular calcium concentration as index (NFAT-luciferase reporter, CHO(dhfr-)/GPR40-NFAT-Luc cells). Particulars: CHO cell line expressing human GPR40, NFAT-Luc reporter; GPR40 agonist 3-(4-((6-benzyloxy-2',6'-dimethyl-biphenyl-3-yl)methoxy)phenyl)propanoic acid 40 nM; 4 hr culture; 0.1% fatty acid-free BSA. In kind it is cell-based. The source says: Evaluation of GPR40 antagonist activity with changes in intracellular calcium concentration as index
An assay system of GPR40 antagonist was established as follows. In this assay system, as the GPR40 agonist, 3-(4-((6-benzyloxy-2′,6′-dimethyl-biphenyl-3-yl)methoxy)phenyl)propanoic acid (compound described in Example 340 of WO2004/041266) was used.
First, NFAT-TA was cut out from pNFAT-TA-Luc (manufactured by BD Bioscience Clontech) with HindIII and NheI, the recovered fragment was inserted into pGL3 basic neo digested with HindIII and NheI to give plasmid:pGL3 basic neo NFAT-TA-Luc.
This plasmid was used for “the CHO cell line (CHO-hGPR40 No. 104), which was made to express human GPR40” described in WO2004/041266, and a cell line CHO(dhfr-)/GPR40-NFAT-Luc, wherein a reporter gene was stably expressed by a method known per se, was prepared.
This cell line was diluted with a medium (nucleic acid-free MEM (Minimum Essential Medium)—α medium added with dialyzed FBS (Fetal Bovine Serum) to a final concentration of 10%) in such a manner that 2×10^4 cells/100 μl would be contained, dispensed to a white walled 96 well plate (manufactured by Coster) by 100 μl per well, and cultured overnight in a CO2 incubator. Then the medium was removed by suction from the 96 well plate, and a 10 mM test compound-dimethyl sulfoxide (manufactured by Wako Pure Chemical Industries, Ltd.) solution diluted with a medium (nucleic acid-free MEM—α medium added with bovine serum albumin (BSA) free of fatty acid to a final concentration of 0.1%) to each concentration was added by 50 μl per well. Further, 3-(4-((6-benzyloxy-2′,6′-dimethyl-biphenyl-3-yl)methoxy)phenyl)propanoic acid diluted with a medium (nucleic acid-free MEM-α (medium added with BSA free of fatty acid to a final concentration of 0.1%) to a final concentration of 40 nM was added to the 96 well plate by 50 μl per well.
After culture in a CO2 incubator for 4 hr, the culture medium was removed from the 96 well plate. Then, PicaGene (manufactured by TOYO INK MFG. CO., LTD.) was added to the 96 well plate, and the luciferase activity was determined using PerkinElmer ARVO (trade name, manufactured by PerkinElmer), based on which changes in the intracellular calcium concentration were evaluated. After assay of luciferase activity, nonlinear regression analysis was performed using PRISM 3 (trade name, manufactured by GraphPad) and IC50 value was calculated with changes in the intracellular calcium concentration as an index.
In the same manner as in Experimental Example 1, the IC50 value of the compound of the present invention was calculated.

Where only a bound is given, the exact number is not on record here.

T1 sequence (O14842 whole entry): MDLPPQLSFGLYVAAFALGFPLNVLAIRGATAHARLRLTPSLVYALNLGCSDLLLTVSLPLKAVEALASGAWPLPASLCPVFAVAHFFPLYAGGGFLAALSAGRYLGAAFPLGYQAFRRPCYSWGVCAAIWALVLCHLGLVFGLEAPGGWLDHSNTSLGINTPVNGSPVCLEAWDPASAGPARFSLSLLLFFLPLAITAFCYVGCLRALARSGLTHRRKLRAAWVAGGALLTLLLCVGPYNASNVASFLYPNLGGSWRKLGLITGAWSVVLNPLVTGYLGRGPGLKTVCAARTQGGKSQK

As usually defined, the melting point is the temperature of the solid-liquid transition. What is called IC50 is the concentration that gives 50% inhibition. Take `CCCOc1ccc(-n2c(NCc3ccc(C(C)(C)C)cc3)nc3cc(Cl)c(Cl)cc32)cc1` [Example 96, N-(4-tert-Butylbenzyl)-5,6-dichloro-1-(4-propoxyphenyl)-1H-benzimidazol-2-amine]: the melting point is 122 to 123 °C. Further, the IC50 on human GPR40 is under 0.1 µM.

`CCCOc1ccc(-n2c(NCc3ccc(Br)cc3)nc3cc(Cl)c(Cl)cc32)cc1` [Example 97, N-(4-Bromobenzyl)-5,6-dichloro-1-(4-propoxyphenyl)-1H-benzimidazol-2-amine] yielded a melting point of 106 to 107 °C. The IC50 on human GPR40 is under 0.1 µM.

In turn, `CCCOc1ccc(-n2c(NCc3ccc(Cl)cc3)nc3cc(Cl)c(Cl)cc32)cc1` [Example 98, 5,6-Dichloro-N-(4-chlorobenzyl)-1-(4-propoxyphenyl)-1H-benzimidazol-2-amine] came in with a melting point of 166 to 167 °C. Further, the IC50 on human GPR40 is under 0.1 µM.

As to `CCCCOc1ccc(-n2c(NCc3ccc(Br)cc3)nc3cc(Cl)c(Cl)cc32)cc1` [Example 100, 1-(4-Butoxyphenyl)-5,6-dichloro-N-(4-bromobenzyl)-1H-benzimidazol-2-amine], the melting point is 161 to 162 °C. The IC50 at human GPR40 was under 0.1 µM.

As to `CCCCOc1ccc(-n2c(NCc3ccc(Cl)cc3)nc3cc(Cl)c(Cl)cc32)cc1` [Example 101, 1-(4-Butoxyphenyl)-5,6-dichloro-N-(4-chlorobenzyl)-1H-benzimidazol-2-amine], the melting point lay within 162 to 163 °C. The IC50 on human GPR40 was under 0.1 µM.

Turning to `CC(C)(C)c1ccc(CNc2nc3cc(Cl)c(Cl)cc3n2-c2ccc(OCC(F)(F)F)cc2)cc1` [Example 102, N-(4-tert-Butylbenzyl)-5,6-dichloro-1-[4-(2,2,2-trifluoroethoxy)phenyl]-1H-benzimidazol-2-amine], the melting point lay in the range of 136 to 137 °C. The IC50 on human GPR40 is under 0.1 µM.

For `FC(F)(F)COc1ccc(-n2c(NCc3ccc(Br)cc3)nc3cc(Cl)c(Cl)cc32)cc1` [Example 103, N-(4-Bromobenzyl)-5,6-dichloro-1-[4-(2,2,2-trifluoroethoxy)phenyl]-1H-benzimidazol-2-amine], the melting point is 118 to 120 °C. At human GPR40, the IC50 was under 0.1 µM.

In turn, `CC(C)(C)c1ccc(CNc2nc3cc(Cl)c(Cl)cc3n2-c2ccc(OC(F)(F)F)cc2)cc1` [Example 105, N-(4-tert-butylbenzyl)-5,6-dichloro-1-[4-(trifluoromethoxy)phenyl]-1H-benzimidazol-2-amine] displayed a melting point of 158 to 159 °C. The IC50 on human GPR40 was under 0.1 µM.

`CC(C)(C)c1ccc(CNc2nc3ccc(Cl)cc3n2-c2ccc(OC(F)(F)C(F)F)cc2)cc1.Cl` [Example 106, N-(4-tert-Butylbenzyl)-6-chloro-1-[4-(1,1,2,2-tetrafluoroethoxy)phenyl]-1H-benzimidazol-2-amine hydrochloride] yielded a melting point of 130 to 133 °C. For the same molecule, at human GPR40, the IC50 was under 0.1 µM.

For the molecule `COc1ccc(-n2c(SCc3ccc(Cl)cc3)nc3cc(Cl)c(Cl)cc32)cc1` [Example 108, 5,6-Dichloro-2-[(4-chlorobenzyl)thio]-1-(4-methoxyphenyl)-1H-benzimidazole], the melting point fell in the range of 141 to 142 °C. For the same molecule, the IC50 on human GPR40 was under 0.1 µM.

Take `CC(C)Oc1ccc(-n2c(SCc3ccc(Cl)cc3)nc3cc(Cl)c(Cl)cc32)cc1` [Example 110, 5,6-Dichloro-2-[(4-chlorobenzyl)thio]-1-(4-isopropoxyphenyl)-1H-benzimidazole]: the melting point lay within 149 to 150 °C. The IC50 on human GPR40 is under 0.1 µM.

The molecule `CCOc1ccc(-n2c(SCc3ccc(Cl)cc3)nc3cc(Cl)c(Cl)cc32)cc1` [Example 111, 5,6-Dichloro-2-[(4-chlorobenzyl)thio]-1-(4-ethoxyphenyl)-1H-benzimidazole] yielded a melting point of 131 to 132 °C. The IC50 at human GPR40 is under 0.1 µM.

In the case of `CCCOc1ccc(-n2c(SCc3ccc(Cl)cc3)nc3cc(Cl)c(Cl)cc32)cc1` [Example 112, 5,6-Dichloro-2-[(4-chlorobenzyl)thio]-1-(4-propoxyphenyl)-1H-benzimidazole], the melting point was 119 to 120 °C. Further, the IC50 on human GPR40 is under 0.1 µM.

`CCCCOc1ccc(-n2c(SCc3ccc(Cl)cc3)nc3cc(Cl)c(Cl)cc32)cc1` [Example 113, 1-(4-Butoxyphenyl)-5,6-dichloro-2-[(4-chlorobenzyl)thio]-1H-benzimidazole] gave a melting point of 99 to 100 °C. Also, the IC50 at human GPR40 was under 0.1 µM.

`CCCOc1ccc(-n2c(SCc3ccc(Cl)cc3)nc3cc(Cl)ccc32)cc1.Cl` [Example 121, 5-Chloro-2-[(4-chlorobenzyl)thio]-1-(4-propoxyphenyl)-1H-benzimidazole hydrochloride]: the melting point lay within 104 to 112 °C. For the same molecule, the IC50 on human GPR40 was under 0.1 µM.

The molecule `CCCCOc1ccc(-n2c(SCc3ccc(Cl)cc3)nc3cc(Cl)ccc32)cc1.Cl` [Example 122, 1-(4-Butoxyphenyl)-5-chloro-2-[(4-chlorobenzyl)thio]-1H-benzimidazole hydrochloride] showed a melting point of 83 to 89 °C. Besides, the IC50 on human GPR40 was under 0.1 µM.

`FC(F)(F)COc1ccc(-n2c(SCc3ccc(Cl)cc3)nc3cc(Cl)c(Cl)cc32)cc1` [Example 131, 5,6-Dichloro-2-[(4-chlorobenzyl)thio]-1-[4-(2,2,2-trifluoroethoxy)phenyl]-1H-benzimidazole] showed a melting point of 90 to 92 °C. In addition, the IC50 at human GPR40 was under 0.1 µM.

For `Clc1ccc(CSc2nc3ccc(Cl)cc3n2-c2ccc(C3OCCO3)cc2)cc1` [Example 132, 6-Chloro-2-[(4-chlorobenzyl)thio]-1-[4-(1,3-dioxolan-2-yl)phenyl]-1H-benzimidazole], the melting point is 129 to 130 °C. For the same molecule, at human GPR40, the IC50 is under 0.1 µM.

`FC(F)C(F)(F)Oc1ccc(-n2c(SCc3ccc(Cl)cc3)nc3ccc(Cl)cc32)cc1` [Example 135, 6-Chloro-2-[(4-chlorobenzyl)thio]-1-[4-(1,1,2,2-tetrafluoroethoxy)phenyl]-1H-benzimidazole] displayed a melting point of 139 to 140 °C. Besides, the IC50 at human GPR40 was under 0.1 µM.
